Measurements from US8574831B2, “Mutational profiles in HIV-1 reverse transcriptase correlated with phenotypic drug resistance” (Virco N.V., priority 2000, dated 2013).

System: HIV with mutations in the HIV protease sequence
Assay: Phenotypic fold resistance to protease inhibitors, protease mutations 84A/84L/84C/54M/54L/54V in a background (Examples 8-13)
Assay type: cell-based, HIV-1
Method: As is the case with the genotyping assays, the recombinant virus assay starts with the amplification of viral target sequences by means of PCR. The amplicons are incorporated into a proviral laboratory clone with sequences homologous to those present in the amplicon deleted. This generates a stock of chimeric viruses. The viruses are tested for their ability to grow in the presence of different concentrations of drugs. Results are obtained by calculating IC50 values for each inhibitor and by reporting the results as IC50 values, expressed in μM concentrations, or by computing the ratio of the IC50 values found for the chimeric virus to the IC50 values found for a wild type susceptible laboratory virus tested in parallel. In the latter case, resistance is expressed as “fold-resistance” compared to a wild-type susceptible HIV-1 strain. In order to meet the need for high-volume testing and a short turn-around time for an individual test, the latest generation of phenotyping assays has undergone further modifications. The use of reporter gene systems for susceptibility testing allows the implementation of laboratory automation and standardization. See Pauwels, et al., J. Virol. Methods 20, 309-321 (1998); Paulous, S., et al., International Workshop on HIV Drug Resistance, Treatment Strategies and Eradication, St. Petersburg, Fla., USA. Abstr. 46 (1997); and Deeks, S. G., et al., 2nd International Workshop on HIV Drug Resistance and Treatment Strategies, Lake Maggiore, Italy. Abstr. 53 (1998).
The ANTIVIROGRAM® assay (Virco) (WO 97/27480) is based on homologous recombination of patient derived HIV-1 gag/PR/RT sequences into a proviral HIV-1 clone correspondingly deleted for the gag/PR/RT sequences. See Pauwels, et al., J. Virol. Methods 20, 309-321 (1998). A similar assay (Phenosense ViroLogic) is based on enzymatic ligation of patient-derived PR/RT sequences into a correspondingly deleted proviral vector carrying an indicator gene, luciferase, inserted in the deleted HIV-1 envelope gene. See Deeks, S. G., et al., 2nd International Workshop on HIV Drug Resistance and Treatment Strategies, Lake Maggiore, Italy. Abstr. 53 (1998). Hertogs et al. Antimicrob. Agents Chemother. 44(3) 568-573 (2000) the disclosures of which are herein incorporated by reference.
The methods of monitoring HIV-1 drug resistance, may also be used in combination with phenotypic drug resistance testing of viral isolates. For example, in one embodiment, a phenotypic test is utilized that is based upon the construction of chimeric HIV-1 strains composed of the protease (PR) and reverse transcriptase (RT) gene sequences which are isolated and amplified from the patient viral RNA. These strains may subsequently be recombined inside CD4+ T cells with a standard laboratory isogenic (HXB2) HIV-1 DNA construct from which the PR/RT gene sequences were deleted. The recombinant strains may then be grown in the presence of the above-mentioned antiviral drugs and the susceptibility of the viral isolates may be expressed as fold-change value of the IC50 of the drug on the patient isolates over the IC50 of the drug on a wild-type laboratory reference strain.

SMILES: CC(C)(C)NC(=O)[C@@H]1CN(Cc2cccnc2)CCN1C[C@@H](O)C[C@@H](Cc1ccccc1)C(=O)N[C@H]1c2ccccc2C[C@H]1O [Indinavir, indinavir]
- Fold change in IC50 (Table 12, V055199, genotype 10I + 33F + 54M + 90M): 2.3 fold
- Fold change in IC50 (Table 13, V19263, genotype 77I): 0.4 fold
- Fold change in IC50 (Table 13, V20160, genotype WT): 0.9 fold
- Fold change in IC50 (Table 13, V021667, genotype 10I): 0.7 fold
- Fold change in IC50 (Table 13, V030496, genotype 10I + 77I): 0.4 fold
- Fold change in IC50 (Table 13, V048868, genotype 10I + 54L + 71V + 77I + 90M): 6.2 fold
- Fold change in IC50 (Table 13, V048874, genotype 10I + 33F + 54L + 71V + 77I + 90M): 2.1 fold
- Fold change in IC50 (Table 13, V048875, genotype 10I + 33F + 54L + 71V + 77I + 90M): 3.7 fold
- Fold change in IC50 (Table 13, V048877, genotype 10I + 33F + 77I + 90M): 2.9 fold
- Fold change in IC50 (Table 13, V048880, genotype 10I + 33F + 77I + 90M): 1.3 fold
- Fold change in IC50 (Table 13, V052940, genotype 71V): 0.7 fold
- Fold change in IC50 (Table 13, V052942, genotype 10I + 71V): 0.6 fold
- Fold change in IC50 (Table 13, V052943, genotype 10I + 90M): 0.5 fold
- Fold change in IC50 (Table 13, V052944, genotype 10I + 90M): 0.5 fold
- Fold change in IC50 (Table 13, V052945, genotype 77I + 90M): 0.6 fold
- Fold change in IC50 (Table 13, V052946, genotype 71V + 90M): 0.9 fold
- Fold change in IC50 (Table 13, V052947, genotype 10I + 77I + 90M): 2.9 fold
- Fold change in IC50 (Table 13, V052948, genotype 10I + 71V + 90M): 8.6 fold
- Fold change in IC50 (Table 13, V052949, genotype 10I + 71V + 77I + 90M): 2.7 fold
- Fold change in IC50 (Table 13, V052950, genotype 33F): 0.6 fold
- Fold change in IC50 (Table 13, V052951, genotype 33F + 77I): 0.4 fold
- Fold change in IC50 (Table 13, V052953, genotype 10I + 33F + 77I): 0.8 fold
- Fold change in IC50 (Table 13, V052954, genotype 33F + 77I + 90M): 1.7 fold
- Fold change in IC50 (Table 13, V052955, genotype 33F + 71V + 90M): 5.3 fold
- Fold change in IC50 (Table 13, V052968, genotype 10L/I + 33F/L + 54L + 77I): 1.3 fold
- Fold change in IC50 (Table 13, V052969, genotype 10I + 33F + 54L + 90M): 1.3 fold
- Fold change in IC50 (Table 13, V052970, genotype 54L): 0.6 fold
- Fold change in IC50 (Table 13, V052971, genotype 10I + 54L): 0.7 fold
- Fold change in IC50 (Table 13, V052972, genotype 54L + 77I): 0.8 fold
- Fold change in IC50 (Table 13, V052973, genotype 10I + 54L + 77I): 0.8 fold
- Fold change in IC50 (Table 13, V052974, genotype 10I + 54L + 90M): 1.7 fold
- Fold change in IC50 (Table 13, V052975, genotype 10I + 54L + 71V + 90M): 10.2 fold
- Fold change in IC50 (Table 13, V052976, genotype 10I + 54L + 71V + 77I + 90M): 1.7 fold
- Fold change in IC50 (Table 13, V053832, genotype 10I + 33F): 0.4 fold
- Fold change in IC50 (Table 13, V053854, genotype 54L + 71V): 1.7 fold
- Fold change in IC50 (Virco ID 214846, genotype 10I + 33F + 54V + 71V + 77I + 90M, vs mean IC50 of wild type laboratory HIV strain): 13.8 fold
- Fold change in IC50 (Virco ID V021667, genotype 10I, vs mean IC50 of wild type laboratory HIV strain): 0.7 fold
- Fold change in IC50 (Virco ID V030496, genotype 10I + 77I, vs mean IC50 of wild type laboratory HIV strain): 0.4 fold
- Fold change in IC50 (Virco ID V048876, genotype 33F + 54V + 77I + 90M, vs mean IC50 of wild type laboratory HIV strain): 0.6 fold
- Fold change in IC50 (Virco ID V048877, genotype 10I + 33F + 77I + 90M, vs mean IC50 of wild type laboratory HIV strain): 2.9 fold
- Fold change in IC50 (Virco ID V048880, genotype 10I + 33F + 77I + 90M, vs mean IC50 of wild type laboratory HIV strain): 1.3 fold
- Fold change in IC50 (Virco ID V052940, genotype 71V, vs mean IC50 of wild type laboratory HIV strain): 0.7 fold
- Fold change in IC50 (Virco ID V052942, genotype 10I + 71V, vs mean IC50 of wild type laboratory HIV strain): 0.6 fold
- Fold change in IC50 (Virco ID V052943, genotype 10I + 90M, vs mean IC50 of wild type laboratory HIV strain): 0.5 fold
- Fold change in IC50 (Virco ID V052944, genotype 10I + 90M, vs mean IC50 of wild type laboratory HIV strain): 0.5 fold
- Fold change in IC50 (Virco ID V052946, genotype 71V + 90M, vs mean IC50 of wild type laboratory HIV strain): 0.9 fold
- Fold change in IC50 (Virco ID V052947, genotype 10I + 77I + 90M, vs mean IC50 of wild type laboratory HIV strain): 2.9 fold
- Fold change in IC50 (Virco ID V052948, genotype 10I + 71V + 90M, vs mean IC50 of wild type laboratory HIV strain): 8.6 fold
- Fold change in IC50 (Virco ID V052949, genotype 10I + 71V + 77I + 90M, vs mean IC50 of wild type laboratory HIV strain): 2.7 fold
- Fold change in IC50 (Virco ID V052950, genotype 33F, vs mean IC50 of wild type laboratory HIV strain): 0.6 fold
- Fold change in IC50 (Virco ID V052951, genotype 33F + 77I, vs mean IC50 of wild type laboratory HIV strain): 0.4 fold
- Fold change in IC50 (Virco ID V052953, genotype 10I + 33F + 77I, vs mean IC50 of wild type laboratory HIV strain): 0.8 fold
- Fold change in IC50 (Virco ID V052954, genotype 33F + 77I + 90M, vs mean IC50 of wild type laboratory HIV strain): 1.7 fold
- Fold change in IC50 (Virco ID V052955, genotype 33F + 71V + 90M, vs mean IC50 of wild type laboratory HIV strain): 5.3 fold
- Fold change in IC50 (Virco ID V052957, genotype 10I + 33F + 54V + 90M, vs mean IC50 of wild type laboratory HIV strain): 1.4 fold
- Fold change in IC50 (Virco ID V052958, genotype 10I + 33F + 54V + 77I + 90M, vs mean IC50 of wild type laboratory HIV strain): 16.3 fold
- Fold change in IC50 (Virco ID V052959, genotype 10I + 33F + 54V + 77I + 90M, vs mean IC50 of wild type laboratory HIV strain): 12.8 fold
- Fold change in IC50 (Virco ID V052960, genotype 10I + 33F + 54V + 71V + 90M, vs mean IC50 of wild type laboratory HIV strain): 9.9 fold
- Fold change in IC50 (Virco ID V052961, genotype 54V, vs mean IC50 of wild type laboratory HIV strain): 0.7 fold
- Fold change in IC50 (Virco ID V052962, genotype 10I + 54V, vs mean IC50 of wild type laboratory HIV strain): 0.8 fold
- Fold change in IC50 (Virco ID V052963, genotype 54V + 77I + 90M, vs mean IC50 of wild type laboratory HIV strain): 1.2 fold
- Fold change in IC50 (Virco ID V052964, genotype 54V + 71V + 90M, vs mean IC50 of wild type laboratory HIV strain): 0.7 fold
- Fold change in IC50 (Virco ID V052965, genotype 10I + 54V + 77I + 90M, vs mean IC50 of wild type laboratory HIV strain): 8.2 fold
- Fold change in IC50 (Virco ID V052966, genotype 10I + 54V + 71V + 90M, vs mean IC50 of wild type laboratory HIV strain): 7.7 fold
- Fold change in IC50 (Virco ID V052967, genotype 10I + 54V + 71V + 77I + 90M, vs mean IC50 of wild type laboratory HIV strain): 0.4 fold
- Fold change in IC50 (Virco ID V053358, genotype 33F + 54V + 77I + 90M, vs mean IC50 of wild type laboratory HIV strain): 1.2 fold
- Fold change in IC50 (Virco ID V053831, genotype 33F + 54V, vs mean IC50 of wild type laboratory HIV strain): 5.4 fold
- Fold change in IC50 (Virco ID V053832, genotype 10I + 33F, vs mean IC50 of wild type laboratory HIV strain): 0.4 fold
